Reference: patent US9980943B2, “Methods of treating muscular dystrophy” (BOARD OF REGENTS OF THE NEVADA SYSTEM OF HIGHER EDUCATION, …, priority 2013, dated 2018)

What was measured:
Assay type in all cases: cell-based, mouse
[1] = system: α7 integrin (LacZ reporter in α7βgal+/− myoblasts); test: Myoblast α7+/LacZ integrin FDG assay (Burkin assay in myoblasts, 96-well); conditions: α7+/LacZ myoblasts, 96-well
[2] = system: α7 integrin (LacZ reporter in α7+/LacZ myotubes); test: Myotube α7 integrin FDG assay (Burkin assay in myotubes, 96-well); conditions: myotubes
[3] = system: β-galactosidase in CMV-LacZ C2C12 myoblasts; test: CMV-LacZ secondary screen in C2C12 myoblasts (β-Gal stabilizing assay); conditions: CMV-LacZ C2C12 myoblasts
Summary of the method: (§1)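 Stable CMV-LacZ C2C12 clone; six-point curve 0.5–40 μM; duplicates.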

[4] = system: β-galactosidase in CMV-LacZ C2C12 myotubes; test: CMV-LacZ secondary screen in C2C12 myotubes (β-Gal stabilizing assay); conditions: C2C12 CMV-LacZ myotubes, fold relative to DMSO
Summary of the method: as §1

Compound	Burkin Assay in Myoblasts, signal relative to DMSO ([1]; 0.5 uM)	Burkin Assay in Myoblasts, signal relative to DMSO ([1]; 1 uM)	Burkin Assay in Myoblasts, signal relative to DMSO ([1]; 5 uM)	Burkin Assay in Myoblasts, signal relative to DMSO ([1]; 10 uM)	Burkin Assay in Myoblasts, signal relative to DMSO ([1]; 20 uM)	Burkin Assay in Myoblasts, signal relative to DMSO ([1]; 40 uM)	Burkin Assay in Myotubes, α7 integrin LacZ reporter signal relative to DMSO ([2]; 0.5 uM)	Burkin Assay in Myotubes, α7 integrin LacZ reporter signal relative to DMSO ([2]; 1 uM)	Burkin Assay in Myotubes, α7 integrin LacZ reporter signal relative to DMSO ([2]; 5 uM)	Burkin Assay in Myotubes, α7 integrin LacZ reporter signal relative to DMSO ([2]; 10 uM)	Burkin Assay in Myotubes, α7 integrin LacZ reporter signal relative to DMSO ([2]; 20 uM)	Burkin Assay in Myotubes, α7 integrin LacZ reporter signal relative to DMSO ([2]; 40 uM)	CMV-LACZ in Myoblasts (β-galactosidase activity relative to DMSO) ([3]; 0.5 uM)	CMV-LACZ in Myoblasts (β-galactosidase activity relative to DMSO) ([3]; 1 uM)	CMV-LACZ in Myoblasts (β-galactosidase activity relative to DMSO) ([3]; 5 uM)	CMV-LACZ in Myoblasts (β-galactosidase activity relative to DMSO) ([3]; 10 uM)	CMV-LACZ in Myoblasts (β-galactosidase activity relative to DMSO) ([3]; 20 uM)	CMV-LACZ in Myoblasts (β-galactosidase activity relative to DMSO) ([3]; 40 uM)	CMV-LACZ in Myotubes, signal relative to DMSO ([4]; 0.5 uM)	CMV-LACZ in Myotubes, signal relative to DMSO ([4]; 1 uM)	also measured
CCn1c(=O)c2cc(C(=O)N(C)c3cc(C)ccc3OC)sc2c2ccccc21 [MLS000731285-01]	1.064	0.9235	0.7727	0.7344	0.604	0.6077	0.8544	0.961	0.8695	0.9409	0.69	0.1953	1.1747	1.0853	1.0851	0.8436	0.9582	0.6572	1.2048	1.0562	CMV-LACZ in Myotubes, signal relative to DMSO ([4]; 5 uM): 1.4794; CMV-LACZ in Myotubes, signal relative to DMSO ([4]; 10 uM): 1.3012; CMV-LACZ in Myotubes, signal relative to DMSO ([4]; 20 uM): 1.0310; CMV-LACZ in Myotubes, signal relative to DMSO ([4]; 40 uM): 0.6450
Cn1cc(CN(CCO)Cc2cccs2)c(-c2ccccc2F)n1 [MLS000732652-01]	1.176	1.191	0.972	1.2648	1.0346	0.8792	1.092	1.116	1.1938	1.141	0.6797	0.7309	0.6700	0.7744	1.1327	1.1235	0.9374	0.7856	1.1615	0.8859	CMV-LACZ in Myotubes, signal relative to DMSO ([4]; 5 uM): 1.0614; CMV-LACZ in Myotubes, signal relative to DMSO ([4]; 10 uM): 1.0697; CMV-LACZ in Myotubes, signal relative to DMSO ([4]; 20 uM): 0.8518; CMV-LACZ in Myotubes, signal relative to DMSO ([4]; 40 uM): 1.0329
COc1ccc(CN2CCNC(=O)C2CC(=O)NCCc2c[nH]c3ccccc23)c(OC)c1 (stereo not drawn) [MLS000734270-01]	1.0135	1.048	1.21	0.955	0.9739	0.9873	0.941	0.8975	1.083	0.9081	0.8558	0.8102	0.9296	0.8379	0.9337	0.9468	1.0122	0.9548	1.0019	1.0038	CMV-LACZ in Myotubes, signal relative to DMSO ([4]; 5 uM): 1.1042; CMV-LACZ in Myotubes, signal relative to DMSO ([4]; 10 uM): 1.0885; CMV-LACZ in Myotubes, signal relative to DMSO ([4]; 20 uM): 1.1158; CMV-LACZ in Myotubes, signal relative to DMSO ([4]; 40 uM): 0.9095
CN(CCC1CCCCO1)C(=O)CCc1nnc(CCCCc2ccccc2)o1 (stereo not drawn) [MLS000735021-01]	0.9402	0.9246	0.9982	0.9765	1.025	0.9941	1.013	1.009	0.9137	1.006	0.8444	0.8523	0.8683	1.1646	0.9756	0.9907	1.2130	0.9767	1.0105	1.0221	CMV-LACZ in Myotubes, signal relative to DMSO ([4]; 5 uM): 0.9548; CMV-LACZ in Myotubes, signal relative to DMSO ([4]; 10 uM): 0.9616; CMV-LACZ in Myotubes, signal relative to DMSO ([4]; 20 uM): 1.0378; CMV-LACZ in Myotubes, signal relative to DMSO ([4]; 40 uM): 1.0778
COc1ccc(N=Nc2ccc(N)nc2N)cc1 [MLS000736846-01]	1.218	1.2858	1.07	1.012	1.0406	0.9563	1.131	1.144	1.004	0.9396	0.8776	0.9673	1.1009	1.0386	1.0269	1.1101	1.3459	1.0174	0.8438	0.9714	CMV-LACZ in Myotubes, signal relative to DMSO ([4]; 5 uM): 1.0250; CMV-LACZ in Myotubes, signal relative to DMSO ([4]; 10 uM): 1.1737; CMV-LACZ in Myotubes, signal relative to DMSO ([4]; 20 uM): 1.1000; CMV-LACZ in Myotubes, signal relative to DMSO ([4]; 40 uM): 1.2788
O=c1[nH]c(SCc2ccc(Cl)cc2)nc2ccsc12 [MLS000755214-01]	1.077	1.021	0.9757	0.9635	0.8448	0.861	1.01	0.9661	0.9321	1.0353	0.9655	0.8312	1.0190	1.1650	0.9281	1.0994	1.0835	0.8172	0.9543	0.8600	CMV-LACZ in Myotubes, signal relative to DMSO ([4]; 5 uM): 1.0763; CMV-LACZ in Myotubes, signal relative to DMSO ([4]; 10 uM): 1.0591; CMV-LACZ in Myotubes, signal relative to DMSO ([4]; 20 uM): 0.9280; CMV-LACZ in Myotubes, signal relative to DMSO ([4]; 40 uM): 1.0190
